According to publication PMC5603603, “Linoleic and palmitoleic acid block streptokinase-mediated plasminogen activation and reduce severity of invasive group A streptococcal infection” (Scientific Reports, 2017):
Like-named read-outs stand apart in the source and are kept apart here.

Assays:
[1] = biological target: cluster 2b type streptokinase (Streptococcus pyogenes, UniProt P10520); set-up: species or system group A streptococcal strain A314; settings: cell-based, cluster 2b; for effect on plasminogen activation: concentrations up to 100 µg/ml (around 320–437 µM)
Description: (§1) Then inhibitory compounds (LA, PA, oleic, myristic, stearic, palmitic, arachidonic, arachidic, linolenic acid, TXA or EACA) were added. Stocks of LA and PA were prepared in methanol and then diluted in PBS. Stocks of arachidic, oleic, arachidonic, myristic, palmitic, stearic and linolenic acid were prepared in 60% DMSO/PBS and then diluted in PBS. The untreated control received the same amount of PBS as in case of TXA and EACA as control or the same amount of methanol diluted in PBS as in case of LA and PA, respectively, or the same amount of DMSO diluted in PBS as in case of the other commercially available fatty acids. […] The assay was incubated at 37 °C and measured at the beginning of the reaction and then every hour at 405 nm after 3 sec of shaking on a Tecan Sunrise ELISAReader using Magellan software. Each experiment was repeated three times. IC50 values were calculated using Microsoft® Excel software.

[2] = biological target: T1, cluster 2a type streptokinase (Streptococcus pyogenes, UniProt A0A288R465); assay: biochemical; format: biochemical, group A streptococcal strain A614; settings: for IC50: supernatant-based, cluster 2a
[3] = biological target: cluster 1 type streptokinase (Streptococcus pyogenes, UniProt P10520); format: biochemical, group A streptococcal strain A328; settings: supernatant-based, cluster 1; for effect on plasminogen activation: concentrations up to 100 µg/ml (around 320–437 µM)
Sequence of cluster 1 type streptokinase (P00747 20-810): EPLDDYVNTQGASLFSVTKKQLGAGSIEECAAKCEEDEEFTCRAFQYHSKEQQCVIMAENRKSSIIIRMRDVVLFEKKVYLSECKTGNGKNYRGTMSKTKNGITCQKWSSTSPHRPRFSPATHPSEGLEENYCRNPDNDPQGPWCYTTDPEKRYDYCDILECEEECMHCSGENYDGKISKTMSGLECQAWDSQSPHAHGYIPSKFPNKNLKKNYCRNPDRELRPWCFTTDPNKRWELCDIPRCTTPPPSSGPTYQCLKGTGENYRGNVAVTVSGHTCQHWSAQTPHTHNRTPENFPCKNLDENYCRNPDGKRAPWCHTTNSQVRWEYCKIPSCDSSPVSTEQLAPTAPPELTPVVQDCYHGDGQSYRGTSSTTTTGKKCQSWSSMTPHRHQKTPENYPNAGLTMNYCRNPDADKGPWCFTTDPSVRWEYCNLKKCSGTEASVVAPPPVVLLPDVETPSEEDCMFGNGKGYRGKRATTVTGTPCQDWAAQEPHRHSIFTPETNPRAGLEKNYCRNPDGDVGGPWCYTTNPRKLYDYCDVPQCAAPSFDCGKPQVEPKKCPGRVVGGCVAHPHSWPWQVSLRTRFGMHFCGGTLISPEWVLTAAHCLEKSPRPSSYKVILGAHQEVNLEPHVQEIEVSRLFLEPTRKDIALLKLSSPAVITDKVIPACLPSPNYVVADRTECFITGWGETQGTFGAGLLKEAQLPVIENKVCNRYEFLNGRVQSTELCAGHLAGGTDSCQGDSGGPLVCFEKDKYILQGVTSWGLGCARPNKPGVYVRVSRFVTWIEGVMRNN
Sequence of cluster 1 type streptokinase (P10520 27-440): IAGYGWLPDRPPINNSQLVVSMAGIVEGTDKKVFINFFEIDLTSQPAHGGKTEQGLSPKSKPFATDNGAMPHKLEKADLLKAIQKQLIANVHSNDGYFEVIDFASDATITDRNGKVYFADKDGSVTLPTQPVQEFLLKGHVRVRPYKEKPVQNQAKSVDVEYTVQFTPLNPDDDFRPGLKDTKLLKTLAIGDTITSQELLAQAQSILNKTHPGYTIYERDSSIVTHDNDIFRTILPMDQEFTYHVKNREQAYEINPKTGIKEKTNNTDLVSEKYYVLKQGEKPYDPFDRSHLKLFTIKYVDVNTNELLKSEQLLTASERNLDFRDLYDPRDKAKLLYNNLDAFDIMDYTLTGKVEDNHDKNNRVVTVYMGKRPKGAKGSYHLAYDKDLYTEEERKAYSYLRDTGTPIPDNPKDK
Description: as §1, with “An overnight culture of the strain A328 (cluster 1 type) or A614 (cluster 2a type) was diluted 1:10 in pre-warmed THY medium and grown to an OD600 of around 0.5 at 37 °C. […] The pellet was resuspended in Tris-HCl buffer (50 mM Tris pH 7.5). Then” for “Then”, “added. Stocks of TXA and EACA were prepared in PBS.” for “added.”, “run” for “incubated”, “°C. The absorption was” for “°C and”

[4] = biological target: T1, cluster 2a type streptokinase; set-up: species or system group A streptococcal strain A614; settings: cell-based, cluster 2a
Description: The pellet from a mid-log phase culture of the strain A614 (cluster 2a type) or A314 (cluster 2b type) was washed twice with PBS and bacteria were adjusted to an OD600 of 1.0 in HEPES-buffer (10 mM HEPES, 150 mM NaCl, 0.01% Tween 20, pH 7.4). 90 µl of bacterial cells, plasminogen (final concentration 6.7 µg/ml per well) and fibrinogen (final concentration 1 µM per well) were pre-mixed. Then inhibitory compounds (LA, PA, oleic, myristic, stearic, palmitic, arachidonic, arachidic, linolenic acid, TXA or EACA) were added. Stocks of LA and PA were prepared in methanol and then diluted in PBS. Stocks of arachidic, oleic, arachidonic, myristic, palmitic, stearic and linolenic acid were prepared in 60% DMSO/PBS and then diluted in PBS. The untreated control received the same amount of PBS as in case of TXA and EACA as control or the same amount of methanol diluted in PBS as in case of LA and PA, respectively, or the same amount of DMSO diluted in PBS as in case of the other commercially available fatty acids. Then 50 µl of the respective supernatant (supernatant from the strain A614 if cells from A614 were used, supernatant from the strain A314 were used in case of cells from the GAS strain A314) and 3.75 µl 10 mM S-2251 (Chromogenix) were added. The assay was incubated at 37 °C and measured at the beginning of the reaction and then every hour at 405 nm after 3 sec of shaking on a Tecan Sunrise ELISAReader using Magellan software. Each experiment was repeated three times. IC50 values were calculated using Microsoft® Excel software.

[5] = read-out: inhibition of plasminogen activation

SMILES: CCCCCCCCCCCCCCCCCC(=O)O [stearic acid]
- effect on plasminogen activation [1]: unspecific marginal inhibitory effects

SMILES: CC/C=C\C/C=C\C/C=C\CCCCCCCC(=O)O [linolenic acid, reference compound]
- effect on plasminogen activation [1]: no effect
- inhibition at 359 µM [2, 5]: 30%

SMILES: CCCCCCCCCCCCCC(=O)O [myristic acid, reference compound]
- effect on plasminogen activation [1]: no effect
- effect on plasminogen activation [3]: no effect

SMILES: CCCCCCCC/C=C\CCCCCCCC(=O)O [oleic acid]
- effect on plasminogen activation ([4]; concentrations up to 100 µg/ml (around 320–437 µM)): not active
- effect on plasminogen activation [1]: no effect
- inhibition at 354 µM [2, 5]: ~45%

SMILES: CCCCCCCCCCCCCCCC(=O)O [palmitic acid]
- effect on plasminogen activation [1]: unspecific marginal inhibitory effects

SMILES: NC[C@H]1CC[C@H](C(=O)O)CC1 [TXA, tranexamic acid, reference compound]
- IC50 [4]: 100 mM
- IC50 [3]: > 100 mM
- IC50 [2]: > 100 mM

SMILES: NCCCCCC(=O)O [EACA, ε-amino caproic acid, reference compound]
- IC50 [4]: > 100 mM
- IC50 [1]: 100 mM
- IC50 [3]: > 100 mM
- IC50 [2]: > 100 mM

SMILES: CCCCC/C=C\C/C=C\C/C=C\C/C=C\CCCC(=O)O [arachidonic acid, reference compound]
- effect on plasminogen activation [1]: no effect
- effect on plasminogen activation [3]: no effect
